This test concerns P388 leukemia ip, CD2F1 mice, survival T/C. In words: NCI In Vivo Anticancer Drug Screen. Data for tumor model P388 Leukemia (intraperitoneal) in CD2F1 (CDF1) mice. Conditions: endpoint: median survival time, higher = longer survival. A digest of the protocol:
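Mice carrying the transplanted tumor received test compound or vehicle. Survival was recorded in each group, and the value is the treated-group measurement divided by that of the vehicle-treated control group.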

Where [1] appears, read: dose: 12.5 mg/kg/injection, schedule: Q01DX009 (ip), vehicle: water.
[2] abbreviates: dose: 50.0 mg/kg/injection, schedule: Q01DX009 (ip), vehicle: saline with Tween-80.
The mark [3] stands for this setting: dose: 100.0 mg/kg/injection, schedule: Q01DX009 (ip), vehicle: saline with Tween-80.
[4] abbreviates: dose: 200.0 mg/kg/injection, schedule: Q01DX009 (ip), vehicle: saline with Tween-80.
Setting [5] is: dose: 25.0 mg/kg/injection, schedule: Q01DX005 (ip), vehicle: saline with Tween-80.
[6] abbreviates: dose: 50.0 mg/kg/injection, schedule: Q01DX005 (ip), vehicle: saline with Tween-80.
[7] abbreviates: dose: 100.0 mg/kg/injection, schedule: Q01DX005 (ip), vehicle: saline with Tween-80.
[8] abbreviates: dose: 200.0 mg/kg/injection, schedule: Q01DX005 (ip), vehicle: saline with Tween-80.
Setting [9] is: dose: 50.0 mg/kg/injection, schedule: Q01DX009 (ip), vehicle: saline.

SMILES strings stand for the structures. Values joined by “and” are separate entries in the source; they are usually repeats but may differ in a detail not shown here. Equal entries are not always repeated. Toxic doses and inconclusive results are not listed.

As for `COc1cccc2c1C(=O)c1c(O)c3c(c(O)c1C2=O)CC(O)(/C(CO)=N/NC(=O)CCC(=O)N/N=C(\CO)C1(O)Cc2c(O)c4c(c(O)c2C(OC2CC(N)C(O)C(C)O2)C1)C(=O)c1c(OC)cccc1C4=O)CC3OC1CC(N)C(O)C(C)O1` (configuration not stated), the T/C was 152 % of control (dose: 0.78 mg/kg/injection, schedule: Q01DX009 (ip), vehicle: water); 170 % of control and 196 % of control (dose: 1.56 mg/kg/injection, schedule: Q01DX009 (ip), vehicle: water); 110 % of control (dose: 2.35 mg/kg/injection, schedule: Q04DX003 (ip), vehicle: water); 218 % of control and 222 % of control (dose: 3.13 mg/kg/injection, schedule: Q01DX009 (ip), vehicle: water); 114 % of control (dose: 4.7 mg/kg/injection, schedule: Q04DX003 (ip), vehicle: water); 114 % of control and 309 % of control (dose: 6.25 mg/kg/injection, schedule: Q01DX009 (ip), vehicle: water). Moreover, the T/C runs as follows: (dose: 9.4 mg/kg/injection, schedule: Q04DX003 (ip), vehicle: water) 121 % of control and 124 % of control; under setting [1], 102 % of control and 86 % of control; (dose: 18.8 mg/kg/injection, schedule: Q04DX003 (ip), vehicle: water) 154 % of control; (dose: 37.5 mg/kg/injection, schedule: Q04DX003 (ip), vehicle: water) 181 % of control; (dose: 75.0 mg/kg/injection, schedule: Q04DX003 (ip), vehicle: water) 118 % of control.

As to `CC(C)(C)N=C(CCN1CCCCC1)Nc1ccc(Cl)cc1`, the T/C is, setting by setting: under setting [2], 113 % of control; under setting [3], 112 % of control; under setting [4], 111 % of control.

In the case of `CNc1ccc(C=C2c3ccccc3-c3ccccc32)cc1`, the T/C was 102 % of control (dose: 12.5 mg/kg/injection, schedule: Q01DX001 (ip), vehicle: saline with Tween-80); 105 % of control (dose: 25.0 mg/kg/injection, schedule: Q01DX001 (ip), vehicle: saline with Tween-80); 112 % of control (dose: 50.0 mg/kg/injection, schedule: Q01DX001 (ip), vehicle: saline with Tween-80); 106 % of control (dose: 100.0 mg/kg/injection, schedule: Q01DX001 (ip), vehicle: saline with Tween-80).

Regarding `CC12OC3(C)c4ccccc4OP3(c3ccccc3)(Oc3ccccc31)O2` (configuration not stated), the T/C was 99 % of control under setting [2], 97 % of control under setting [3] and 88 % of control under setting [4].

As for `CCN(CC)Cc1c(OC)ccc2[nH]c3c4ccc(Cl)cc4ncc3c12`, the T/C was 109 % of control under setting [5], 101 % of control under setting [6], 106 % of control under setting [7] and 112 % of control under setting [8].

For `CCCCCCCCCCCCCCCC[N+](C)(C)CC[S+](C)C`, the T/C under setting [1] is 96 % of control; the T/C (dose: 25.0 mg/kg/injection, schedule: Q01DX009 (ip), vehicle: water) is 99 % of control; the T/C (dose: 50.0 mg/kg/injection, schedule: Q01DX009 (ip), vehicle: water) is 100 % of control.

Take `Cn1ccnc1Sc1ccnc(Sc2ccc([N+](=O)[O-])cc2[N+](=O)[O-])n1`: the T/C under setting [9] is 108 % of control; the T/C (dose: 100.0 mg/kg/injection, schedule: Q01DX009 (ip), vehicle: saline) was 96 % of control; the T/C (dose: 200.0 mg/kg/injection, schedule: Q01DX009 (ip), vehicle: saline) was 87 % of control.

For the compound `O=C1OC2=CC=CC=CC2C12C1C=CC=CC12` (configuration not stated), the T/C by setting is: under setting [2], 100 % of control; under setting [3], 105 % of control; under setting [4], 104 % of control.

Consider `C(#Cc1ccccc1)/C=C/C(=C\c1ccccc1)c1ccccc1`, for which the T/C by setting is: (dose: 12.5 mg/kg/injection, schedule: Q01DX005 (ip), vehicle: saline with Tween-80) 101 % of control; under setting [5], 102 % of control; under setting [6], 101 % of control; under setting [7], 100 % of control.

`COC(=O)C1=NC(=S)N=C(C(=O)OC)C12Cc1ccccc1C2=O`: the T/C by setting is: (dose: 60.0 mg/kg/injection, schedule: Q01DX005 (ip), vehicle: Klucel (hydroxypropylcellulose) (HPC)) 92 % of control; (dose: 120.0 mg/kg/injection, schedule: Q01DX005 (ip), vehicle: Klucel (hydroxypropylcellulose) (HPC)) 93 % of control; (dose: 240.0 mg/kg/injection, schedule: Q01DX005 (ip), vehicle: Klucel (hydroxypropylcellulose) (HPC)) 102 % of control.

As for `C=C(C)/C=C/S(=O)c1ccccc1` (configuration not stated), the T/C reads like this: (dose: 50.0 mg/kg/injection, schedule: Q01DX005 (ip), vehicle: Klucel (hydroxypropylcellulose) (HPC)) 100 % of control; (dose: 100.0 mg/kg/injection, schedule: Q01DX005 (ip), vehicle: Klucel (hydroxypropylcellulose) (HPC)) 97 % of control; (dose: 200.0 mg/kg/injection, schedule: Q01DX005 (ip), vehicle: Klucel (hydroxypropylcellulose) (HPC)) 98 % of control.

Consider `O=c1[nH]c(=O)n(C(c2ccccc2)c2ccccc2)cc1F`, for which the T/C runs as follows: (dose: 12.5 mg/kg/injection, schedule: Q01DX009 (ip), vehicle: suspension in saline) 100 % of control; (dose: 25.0 mg/kg/injection, schedule: Q01DX009 (ip), vehicle: suspension in saline) 89 % of control; (dose: 50.0 mg/kg/injection, schedule: Q01DX009 (ip), vehicle: suspension in saline) 99 % of control; (dose: 75.0 mg/kg/injection, schedule: Q01DX009 (ip), vehicle: suspension in saline) 101 % of control; (dose: 100.0 mg/kg/injection, schedule: Q01DX009 (ip), vehicle: suspension in saline) 94 % of control; (dose: 150.0 mg/kg/injection, schedule: Q01DX009 (ip), vehicle: suspension in saline) 90 % of control.

Turning to `CC1(C)CCO/C(=C\C(=O)N2Cc3cc4ccccc4nc3C2)N1`, the T/C is 95 % of control (dose: 18.75 mg/kg/injection, schedule: Q01DX001 (ip), vehicle: saline sonified); 95 % of control (dose: 37.5 mg/kg/injection, schedule: Q01DX001 (ip), vehicle: saline sonified); 100 % of control (dose: 75.0 mg/kg/injection, schedule: Q01DX001 (ip), vehicle: saline sonified).

For the compound `COc1ccc2nc3cc(Cl)ccc3c(Nc3ccc(O)c(CN(CCCl)CCCl)c3)c2c1`, the T/C by setting is: (dose: 0.06 mg/kg/injection, schedule: Q01DX009 (ip), vehicle: saline with Tween-80) 98 % of control; (dose: 0.09 mg/kg/injection, schedule: Q01DX009 (ip), vehicle: saline with Tween-80) 89 % of control; (dose: 0.44 mg/kg/injection, schedule: Q01DX009 (ip), vehicle: saline) 150 % of control; (dose: 0.6 mg/kg/injection, schedule: Q01DX009 (ip), vehicle: saline with Tween-80) 154 % of control; (dose: 0.66 mg/kg/injection, schedule: Q01DX009 (ip), vehicle: saline) 160 % of control; (dose: 1.0 mg/kg/injection, schedule: Q01DX009 (ip), vehicle: saline) 155 % of control. Also, the T/C (dose: 1.5 mg/kg/injection, schedule: Q01DX009 (ip), vehicle: saline) is 175 % of control.

Regarding `CCCCCC(C1SC(=S)NC1=O)C1SC(=S)NC1=O` (configuration not stated), the T/C under setting [6] is 90 % of control and the T/C under setting [7] was 106 % of control.

In the case of `Cc1ccc(S(=O)CC(O)COCc2ccccc2)cc1` (configuration not stated), the T/C is 89 % of control under setting [2], 94 % of control under setting [3] and 91 % of control under setting [4].

`Cc1cccnc1NC1OC(=O)c2ccccc21` (configuration not stated): the T/C is 100 % of control under setting [2] and 96 % of control under setting [3].

For `O=C(OC[P+](c1ccccc1)(c1ccccc1)c1ccccc1)c1ccccc1`, the T/C under setting [9] was 89 % of control.

For the compound `O=C1NCC2CCCC1C2` (configuration not stated), the T/C is 101 % of control under setting [6], 100 % of control under setting [7] and 97 % of control under setting [8].

Turning to `Cc1cc(Br)ccc1N1CSC(=S)N(c2ccc(Br)cc2C)C1`, the T/C is 88 % of control under setting [6], 90 % of control under setting [7] and 93 % of control under setting [8].

`COc1cc(/C=N/NC(=O)c2cccs2)cc(OC)c1OC`: the T/C is 95 % of control under setting [3]; 100 % of control under setting [4]; 100 % of control (dose: 400.0 mg/kg/injection, schedule: Q01DX009 (ip), vehicle: saline with Tween-80).

`CN(C(=S)S(=O)(=O)C12CC3CC(CC(C3)C1)C2)c1ccccc1`: the T/C was 118 % of control (dose: 12.5 mg/kg/injection, schedule: Q01DX009 (ip), vehicle: Klucel (hydroxypropylcellulose) (HPC)) and 124 % of control (dose: 50.0 mg/kg/injection, schedule: Q01DX009 (ip), vehicle: Klucel (hydroxypropylcellulose) (HPC)).

On to `N#Cc1ccc(N(O)C(=O)c2ccccc2)cc1`, for which the T/C was 99 % of control (dose: 12.5 mg/kg/injection, schedule: Q01DX009 (ip), vehicle: saline with Tween-80); 100 % of control (dose: 25.0 mg/kg/injection, schedule: Q01DX009 (ip), vehicle: saline with Tween-80); 99 % of control and 100 % of control under setting [2].
